Structures can show the parent of a compound that is named as a salt. Where two headings read alike, the source gives them in different places.
Assays:
[1] = Solubility in fasted-state simulated colonic fluid (FaSSCoF); type: physicochemical; conditions: 24 h, pH 6.5
Description: The solubilities of compounds of the invention in FaSSCoF at pH 6.5 are determined using a modification of a previously-reported procedure (Vertzoni, M., et al. Pharm. Res. 2010, 27, 2187-2196). In place of the bile salt extract employed in the original procedure (which extract is no longer available), the modified procedure uses a mixture of sodium taurochlorate (0.15 g), glycocholic acid (0.15 g), ursodeoxycholic acid (0.05 g), cholic acid (0.05 g), and glycodeoxycholic acid (0.05 g). These five bile acids are ground together with a mortar and pestle to produce a fine white powder that is incorporated into the FaSSCoF, as outlined below.
Tris(hydroxymethyl)aminomethane (Tris; 0.275 g) and maleic acid (0.44 g) are dissolved in water (35 mL) to give a solution whose pH is adjusted to 6.5 by treatment with 0.5M NaOH (ca. 12 mL). The solution is then made up to 50 mL with water. A portion of this Tris/maleate buffer solution (ca. 25 mL) is added to a 0.5 L round-bottomed flask, before being treated with 0.00565 g of the bile acid mixture described above. Solutions of phosphatidylcholine (0.0111 g) in DCM (0.15 mL) and palmitic acid (0.0013 g) in DCM (0.15 mL) are added, then the organic solvent is evaporated off under reduced pressure at 40° C. until a clear solution, with no perceptible DCM odour, is achieved. The volume of the evaporated solution is adjusted to 50 mL by addition of the remainder of Tris/maleate buffer, then BSA (0.115 g) is added, before being dissolved by gentle agitation.
Test compounds are suspended in the pH 6.5 FaSSCoF medium to give a maximum final concentration of 2-10 mg/mL. The suspensions are equilibrated at 25° C. for 24 h, before being filtered through a glass fibre C filter. The filtrates are then diluted as appropriate for injection and quantification by HPLC with reference to a standard. Different volumes of the standard, diluted and undiluted sample solutions are injected and the solubilities are calculated using the peak areas determined by integration of the peak found at the same retention time as the principal peak in the standard injection.

[2] = Stability of pharmaceutical formulations; type: physicochemical; conditions: for Purity at week n = 4: 4 weeks; for Original Purity: 1 mg/mL solution, before storage; for Purity at week n = 1: 1 week; for Purity at week n = 2: 2 weeks
Description: The samples were sonicated to achieve clear solutions having the following properties: Osmolality (mOsm/kg): 310 (Na), 314 (HCl); pH: 7.00 (Na), 7.05 (HCl). 0.5 mL of the stock solutions were diluted to 1 mL with 20% DMSO in water & injected for purity analysis by HPLC. The remaining stock solutions were then split into aliquots of 0.5 mL in HPLC vials, and stored at various conditions in duplicate. Samples were stored at 5 and 25° C., before being analysed by HPLC at 1, 2 and 4 weeks. Separate samples were stored at 40° C. and analysed at 4 weeks.

[3] = Pharmacokinetics and total colon distribution after oral administration; type: in vivo; conditions: male, C57BL/6, mouse, mice, oral 5 mg/kg, dosed compound measured
Description: Studies were conducted by Sai Life Sciences (Hinjewadi, Pune, India) to investigate the systemic pharmacokinetics and total colon tissue distribution of compounds of the invention. In particular, pharmacokinetic studies were carried out in male C57BL/6 mice following a single oral administration of the compound.

Jurkat cells = assay: (r) Cell cytotoxicity assay; type: cell-based, human; conditions: 24 hours
Outline: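 Viability read by flow cytometry as the fraction of propidium iodide-negative cells (7.5 μg/mL PI, 15 min), relative to 1.0% DMSO control. Beforehand, 1×10^5 Jurkat cells in RPMI/10% FBS were treated 24 h at 37° C., 5% CO2 with test compound at final 20, 5 or 1 μg/mL.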

Syk = Syk (Homo sapiens (Human), UniProt P43405); assay: Syk enzyme inhibition, Z-LYTE FRET; type: biochemical
Outline: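 Syk or c-Src enzyme (3000 or 2000 ng/mL solutions) was preincubated 2 h at RT with compound solutions at 1, 0.1, 0.01 or 0.001 µg/mL. Z-LYTE FRET peptide (8 µM solution) and ATP (800 µM solution for c-Src, 60 µM for Syk) were then added for 1 h, followed by protease development for 1 h. Phosphorylation was read as the coumarin/fluorescein emission ratio.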

mitosis in PBMCs = assay: (g) Cell mitosis assay; type: cell-based; conditions: Homo sapiens, PBMC, 5 μg/mL
Outline: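 Healthy-donor PBMCs stimulated with 2% PHA for 48 hr, then exposed to test compounds at varying concentrations for 20 hr; demecolcine (0.1 μg/mL) added 2 hr before collection for metaphase arrest. Cells fixed/permeabilized, stained with anti-phospho-histone 3 and propidium iodide; mitotic cells counted by flow cytometry gating on lymphocytes.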

c-Src = c-Src (Homo sapiens (Human), UniProt P12931); assay: c-Src enzyme inhibition, Z-LYTE FRET; type: biochemical
Outline: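 Z-LYTE FRET peptide phosphorylation read as donor coumarin over acceptor fluorescein ratio after 1 hr protease development. Compounds (1–0.001 μg/mL) preincubated 2 hr at RT with enzyme; ATP solutions 60 μM for Syk, 800 μM for c-Src; kinase reaction 1 hr.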

p38 MAPKα (MAPK14) = p38 MAPKα (MAPK14) (Homo sapiens (Human), UniProt Q16539); assay: p38 MAPKα enzyme inhibition (Method 2), Z-LYTE FRET; type: biochemical
Outline: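 Enzyme (200 ng/mL solution) was preincubated 2 h at RT with compound solutions of 1, 0.1, 0.01 or 0.001 μg/mL, and inhibition was read indirectly via MAPKAP-K2 activation/phosphorylation. After a 1 h RT reaction and 1 h protease development, phosphorylation was derived from the coumarin/fluorescein emission ratio.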

[4] = blood, read-out: Mean blood concentration
[5] = total colon, read-out: total colon level

Chain of p38 MAPKα (MAPK14) (Q16539 whole entry): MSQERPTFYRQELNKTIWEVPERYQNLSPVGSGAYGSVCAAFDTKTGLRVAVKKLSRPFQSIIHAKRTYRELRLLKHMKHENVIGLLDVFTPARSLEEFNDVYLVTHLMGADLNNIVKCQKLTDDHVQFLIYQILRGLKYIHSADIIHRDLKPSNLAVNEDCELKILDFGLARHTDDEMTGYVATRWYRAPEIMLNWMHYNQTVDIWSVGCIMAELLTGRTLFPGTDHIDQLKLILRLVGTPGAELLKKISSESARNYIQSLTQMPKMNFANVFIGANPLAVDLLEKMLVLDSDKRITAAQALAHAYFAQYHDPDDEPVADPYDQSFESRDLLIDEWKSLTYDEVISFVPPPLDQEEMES
Chain of c-Src (P12931 whole entry, looked up): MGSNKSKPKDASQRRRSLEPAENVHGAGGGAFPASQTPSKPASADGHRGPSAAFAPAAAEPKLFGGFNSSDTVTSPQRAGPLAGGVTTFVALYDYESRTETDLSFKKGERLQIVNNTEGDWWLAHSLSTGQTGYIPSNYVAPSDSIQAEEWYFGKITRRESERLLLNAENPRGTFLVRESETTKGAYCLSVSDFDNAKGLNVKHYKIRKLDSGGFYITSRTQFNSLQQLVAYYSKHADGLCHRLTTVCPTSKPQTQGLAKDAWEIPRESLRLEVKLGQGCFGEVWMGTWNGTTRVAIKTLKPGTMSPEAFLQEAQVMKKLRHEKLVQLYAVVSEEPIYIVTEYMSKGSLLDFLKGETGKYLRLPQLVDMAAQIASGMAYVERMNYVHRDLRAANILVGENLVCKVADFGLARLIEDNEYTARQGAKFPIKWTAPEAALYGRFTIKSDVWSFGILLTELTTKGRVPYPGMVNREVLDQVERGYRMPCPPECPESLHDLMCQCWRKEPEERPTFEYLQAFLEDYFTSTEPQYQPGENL

COc1cc(Nc2cc(Oc3ccc(NC(=O)Nc4cc(C(C)(C)C)cc(NS(C)(=O)=O)c4OC)c4ccccc34)ccn2)ccc1C(=O)O [1 (sodium salt), 4-((4-((4-(3-(5-(tert-Butyl)-2-methoxy-3-(methylsulfonamido)phenyl)ureido)naphthalen-1-yl)oxy)pyridin-2-yl)amino)-2-methoxybenzoic acid]
pH 6.5 FaSSCoF Solubility, Run 2 [1]: 0.032 mg/mL

COc1cc(Nc2cc(Oc3ccc(NC(=O)Nc4cc(C(C)(C)C)cc(NS(C)(=O)=O)c4OC)c4ccccc34)ccn2)ccc1C(=O)O [Example 1, sodium salt]
Purity at week n = 4 ([2]; Sample 1, 40° C.): 76.0%

COc1cc(Nc2cc(Oc3ccc(NC(=O)Nc4cc(C(C)(C)C)cc(NS(C)(=O)=O)c4OC)c4ccccc34)ccn2)ccc1C(=O)NCCOCCOCCOP(=O)(O)O [Example 19, 2-(2-(2-(4-((4-((4-(3-(5-(tert-Butyl)-2-methoxy-3-(methylsulfonamido)phenyl)ureido)-naphthalen-1-yl)oxy)pyridin-2-yl)amino)-2-methoxybenzamido)ethoxy)ethoxy)ethyl dihydrogen phosphate]
concentration at 0.5 h [3, 4]: 0 ng/mL
concentration at 1 h [3, 4]: 0 ng/mL
concentration at 2 h [3, 4]: 0 ng/mL
concentration at 4 h [3, 4]: 0 ng/mL
concentration at 6 h [3, 4]: 0 ng/mL
concentration at 8 h [3, 4]: 0 ng/mL
concentration at 12 h [3, 4]: 0 ng/mL
concentration at 24 h [3, 4]: 0 ng/mL
concentration at 0.5 h [3, 5]: 0 ng/g
concentration at 1 h [3, 5]: 0 ng/g
concentration at 2 h [3, 5]: 0 ng/g
concentration at 4 h [3, 5]: 0 ng/g
concentration at 6 h [3, 5]: 0 ng/g
concentration at 8 h [3, 5]: 0 ng/g
concentration at 12 h [3, 5]: 0 ng/g
concentration at 24 h [3, 5]: 0 ng/g
% Viability at 1 μg/mL (Jurkat cells): 105.0%
% Viability at 5 μg/mL (Jurkat cells): 106.0%
% Viability at 20 μg/mL (Jurkat cells): 100.9%

COCCOCCOCCS(=O)(=O)c1ccc(Nc2cc(Oc3ccc(NC(=O)Nc4cc(C(C)(C)C)cc(NS(C)(=O)=O)c4OC)c4ccccc34)ccn2)cc1OC [Example 12, 1-[5-tert-Butyl-3-(methanesulfonamido)-2-methoxy-phenyl]-3-[4-[[2-[3-methoxy-4-[2-[2-(2-methoxyethoxy)ethoxy]ethylsulfonyl]anilino]-4-pyridyl]oxy]-1-naphthyl]urea]
IC50 (Syk): 831 nM
inhibition at 5 µg/mL (mitosis in PBMCs): 22.1%
IC50 (c-Src): 209 nM
% Viability at 1 μg/mL (Jurkat cells): 74.5%
% Viability at 5 μg/mL (Jurkat cells): 81.8%
% Viability at 20 μg/mL (Jurkat cells): 82.9%
IC50 (p38 MAPKα (MAPK14)): 23 nM

COc1cc(Nc2cc(Oc3ccc(NC(=O)Nc4cc(C(C)(C)C)cc(NS(C)(=O)=O)c4OC)c4ccccc34)ccn2)ccc1C(=O)NCCC1CCN(C)CC1 [Example 14, 4-[[4-[[4-[[5-tert-Butyl-3-(methanesulfonamido)-2-methoxy-phenyl]carbamoylamino]-1-naphthyl]oxy]-2-pyridyl]amino]-2-methoxy-N-[2-(1-methyl-4-piperidyl)ethyl]benzamide]
IC50 (Syk): 92 nM
inhibition at 5 µg/mL (mitosis in PBMCs): 60.1%
IC50 (c-Src): 19 nM
% Viability at 1 μg/mL (Jurkat cells): 101.9%
% Viability at 5 μg/mL (Jurkat cells): 98.8%
% Viability at 20 μg/mL (Jurkat cells): 0.7%
IC50 (p38 MAPKα (MAPK14)): 10 nM

COc1cc(Nc2cc(Oc3ccc(NC(=O)Nc4cc(C(C)(C)C)cc(NS(C)(=O)=O)c4OC)c4ccccc34)ccn2)ccc1C(=O)NCCCN1CCOCC1 [17(b), 4-[[4-[[4-[[5-tert-butyl-3-(methanesulfonamido)-2-methoxy-phenyl]carbamoylamino]-1-naphthyl]oxy]-2-pyridyl]amino]-2-methoxy-N-(3-morpholinopropyl)benzamide]
IC50 (Syk): 98 nM
inhibition at 5 µg/mL (mitosis in PBMCs): 58.9%
IC50 (c-Src): 20 nM
% Viability at 1 μg/mL (Jurkat cells): 102.8%
% Viability at 5 μg/mL (Jurkat cells): 93.8%
% Viability at 20 μg/mL (Jurkat cells): 79.3%
IC50 (p38 MAPKα (MAPK14)): 52 nM

COc1cc(Nc2cc(Oc3ccc(NC(=O)Nc4cc(C(C)(C)C)cc(NS(C)(=O)=O)c4OC)c4ccccc34)ccn2)ccc1C(=O)O.Cl [Example 1, hydrochloride salt]
Original Purity ([2]; Sample 1): 98.1%
Purity at week n = 1 ([2]; Sample 1, 5° C.): 98.2%
Purity at week n = 2 ([2]; Sample 1, 5° C.): 98.1%
Purity at week n = 4 ([2]; Sample 1, 5° C.): 97.9%
Purity at week n = 1 ([2]; Sample 1, 25° C.): 98.0%
Purity at week n = 2 ([2]; Sample 1, 25° C.): 97.7%
Purity at week n = 4 ([2]; Sample 1, 25° C.): 97.2%
Purity at week n = 4 ([2]; Sample 1, 40° C.): 79.2%
Original Purity ([2]; Sample 2): 98.1%
Purity at week n = 1 ([2]; Sample 2, 5° C.): 98.2%
Purity at week n = 2 ([2]; Sample 2, 5° C.): 98.0%
Purity at week n = 4 ([2]; Sample 2, 5° C.): 98.0%
Purity at week n = 1 ([2]; Sample 2, 25° C.): 98.0%
Purity at week n = 2 ([2]; Sample 2, 25° C.): 97.6%
Purity at week n = 4 ([2]; Sample 2, 25° C.): 97.4%
Purity at week n = 4 ([2]; Sample 2, 40° C.): 80.4%

From patent US10125100B2, “Kinase inhibitors” (Respivert Limited, priority 2014, dated 2018)
